Tests used:
[1] = GVS (Gravimetric Vapor Sorption) and XRPD analysis post GVS; format: physicochemical
[2] = Storage stability: XRPD and HPLC analysis post storage at 40° C./75% RH or 25° C./97% RH; format: physicochemical; conditions: three days
Source text: Samples were run under ambient conditions as flat plate specimens using powder as received. The sample was gently packed into a cavity cut into polished, zero-background (510) silicon wafer. The sample was rotated in its own plane during analysis.

Hygroscopicity by GVS [1]	GVS uptake ([1]; from 0 to 90% RH) [%]	Appearance post storage [2]	Compound
hygroscopic	10.0	–	CS(=O)(=O)O.C[C@@H](O)[C@H]1C(=O)N2C(C(=O)OCOC(=O)C(C)(C)C)=C(SC3CN(C4=NCCS4)C3)[C@H](C)[C@H]12 [Example 8, Tebeipenem Pivoxil Methane Sulfonate Salt (MSA)]
–	–	deliquesced	CC(O)C1C(=O)N2C(C(=O)OCOC(=O)C(C)(C)C)=C(SC3CN(C4=NCCS4)C3)C(C)C12.O=S(=O)(O)CCS(=O)(=O)O (stereo not drawn) [Example 13, Tebipenem Pivoxil Edisylate (EDSA) Salt]

— US10889587B2, “Tebipenem pivoxil crystalline forms, compositions including the same, methods of manufacture, and methods of use” (SPERO THERAPEUTICS, INC., priority 2017, dated 2021)
